# Measurements: patent US20250144067A1, “PERSONALIZED STARVATION THERAPY FOR CANCER” (Faeth Therapeutics, Inc., priority 2021, published 2025)
# Ends that are not written are not given here.
# Test system: NCI-H292 lung cancer cells
# Test: FDA drug screening, complete media vs cholesterol-free media without statin (TABLE 1)
# Format: cell-based, human
# Details: Complete minus Cholesterol-free; […]
row,Molecule,Difference
1,"Angiotensin II human (acetate) (DRVYIHPF; also: acetate salt; UniProt P01019 25-32, looked up)",−0.23
2,Aprotinin,−0.21
3,"Argipressin (CYFQNCPRG; not fully specified (C-terminus, bridges); cysteine pairing not given here; UniProt P01185 20-28, looked up)",−0.56

# Same assay, conditions: Complete minus Cholesterol-free; greater than 0 enhanced anti-cancer activity, about 0 neutral, below 0 antagonist
row,Molecule,Difference
1,C[N+](C)(C)CCOP(=O)([O-])OC[C@H](O)CO [sn-Glycero-3-phosphocholine],−0.10
2,O=C(O)CCCCC1CCSS1 (stereo not drawn) [α-Lipoic Acid],−0.15

# Same assay, conditions: Complete minus Cholesterol-free; greater than 0 enhanced anti-cancer activity, about 0 neutral, below 0 antagonists
row,Molecule,Difference
1,CC1=C(/C=C/C(C)=C/C=C/C(C)=C/C=C/C=C(C)/C=C/C=C(C)/C=C/C2=C(C)CCCC2(C)C)C(C)(C)CCC1 [β-Carotene],−0.67
2,(S)-Flurbiprofen,−0.56
3,Alverine (citrate),−0.59
4,Asenapine (maleate),−0.56

# Same assay, conditions: NCI-H292 cells in cholesterol-free media without statin
row,Molecule,Cholesterol-free
1,CC1=C(/C=C/C(C)=C/C=C/C(C)=C/C=C/C=C(C)/C=C/C=C(C)/C=C/C2=C(C)CCCC2(C)C)C(C)(C)CCC1 [β-Carotene],1.322
2,(S)-Flurbiprofen,1.504
3,Alverine (citrate),1.703
4,"Argipressin (CYFQNCPRG; not fully specified (C-terminus, bridges); cysteine pairing not given here; UniProt P01185 20-28, looked up)",1.358
5,Asenapine (maleate),1.49

# Same assay, conditions: NCI-H292 cells in complete media
row,Molecule,Complete
1,CC1=C(/C=C/C(C)=C/C=C/C(C)=C/C=C/C=C(C)/C=C/C=C(C)/C=C/C2=C(C)CCCC2(C)C)C(C)(C)CCC1 [β-Carotene],0.6506
2,(S)-Flurbiprofen,0.9454
3,"Argipressin (CYFQNCPRG; not fully specified (C-terminus, bridges); cysteine pairing not given here; UniProt P01185 20-28, looked up)",0.7951
4,Asenapine (maleate),0.9322

# Same assay, conditions: NCI-H292 cells, FDA drug library screen, cholesterol-free media without statin
row,Molecule,Cholesterol-free
1,C[N+](C)(C)CCOP(=O)([O-])OC[C@H](O)CO [sn-Glycero-3-phosphocholine],0.9108
2,O=C(O)CCCCC1CCSS1 (stereo not drawn) [α-Lipoic Acid],1.192

# Same assay, conditions: NCI-H292 cells, FDA drug library screen, complete media
row,Molecule,Complete
1,C[N+](C)(C)CCOP(=O)([O-])OC[C@H](O)CO [sn-Glycero-3-phosphocholine],0.8124
2,O=C(O)CCCCC1CCSS1 (stereo not drawn) [α-Lipoic Acid],1.044

# Same assay, conditions: NCI-H292 cells, cholesterol-free media without statin
row,Molecule,Cholesterol-free
1,Cc1c(C)c2c(c(C)c1O)CC[C@@](C)(CCC[C@H](C)CCC[C@H](C)CCCC(C)C)O2 [α-Vitamin E],1.5
2,(−)-Sparteine (sulfate pentahydrate),1.28
3,Aliskiren (hemifumarate),1.354
4,"Angiotensin II human (acetate) (DRVYIHPF; also: acetate salt; UniProt P01019 25-32, looked up)",0.9412
5,"Angiotensin III (TFA) (RVYIHPF; also: TFA salt; UniProt P01019 26-32, looked up)",1.338
6,Aprotinin,0.7012

# Same assay, conditions: NCI-H292 cells, cholesterol-free media without statin, FDA drug library screen
row,Molecule,Cholesterol-free
1,(−)-Limonene,1.299
2,"Angiotensin II 5-valine (DRVYVHPF; Angiotensin-2; UniProt P01019 25-32, looked up, variant I5V)",0.8655

# Same assay, conditions: NCI-H292 cells, cholesterol-free media without statin; listed as Berbamine
row,Molecule,Cholesterol-free
1,"COc1cc2c3cc1Oc1c(OC)c(OC)cc4c1[C@@H](Cc1ccc(O)c(c1)Oc1ccc(cc1)C[C@@H]3N(C)CC2)N(C)CC4 [berbamine, reference compound]",1.275

# Same assay, conditions: NCI-H292 cells, complete media
row,Molecule,Complete
1,Cc1c(C)c2c(c(C)c1O)CC[C@@](C)(CCC[C@H](C)CCC[C@H](C)CCCC(C)C)O2 [α-Vitamin E],1.082
2,(−)-Sparteine (sulfate pentahydrate),0.8579
3,Aliskiren (hemifumarate),0.9547
4,"Angiotensin II human (acetate) (DRVYIHPF; also: acetate salt; UniProt P01019 25-32, looked up)",0.7158
5,"Angiotensin III (TFA) (RVYIHPF; also: TFA salt; UniProt P01019 26-32, looked up)",0.9878
6,Aprotinin,0.4863

# Same assay, conditions: NCI-H292 cells, complete media, FDA drug library screen
row,Molecule,Complete
1,(−)-Limonene,1.515
2,"Angiotensin II 5-valine (DRVYVHPF; Angiotensin-2; UniProt P01019 25-32, looked up, variant I5V)",1.09

# Same assay, conditions: NCI-H292 cells, complete media; listed as Berbamine
row,Molecule,Complete
1,"COc1cc2c3cc1Oc1c(OC)c(OC)cc4c1[C@@H](Cc1ccc(O)c(c1)Oc1ccc(cc1)C[C@@H]3N(C)CC2)N(C)CC4 [berbamine, reference compound]",0.9674

# Same assay, conditions: complete vs cholesterol-free media; >0 enhanced anti-cancer activity, about 0 neutral, <0 antagonist
row,Molecule,Difference
1,(−)-Limonene,0.22

# Same assay, conditions: complete vs cholesterol-free media; […]
row,Molecule,Difference
1,(−)-Sparteine (sulfate pentahydrate),−0.42
2,"Angiotensin II 5-valine (DRVYVHPF; Angiotensin-2; UniProt P01019 25-32, looked up, variant I5V)",0.22
3,"Angiotensin III (TFA) (RVYIHPF; also: TFA salt; UniProt P01019 26-32, looked up)",−0.35

# Same assay, conditions: complete vs cholesterol-free media; […]; listed as Berbamine
row,Molecule,Difference
1,"COc1cc2c3cc1Oc1c(OC)c(OC)cc4c1[C@@H](Cc1ccc(O)c(c1)Oc1ccc(cc1)C[C@@H]3N(C)CC2)N(C)CC4 [berbamine, reference compound]",−0.31

# Same assay, conditions: complete vs cholesterol-free media; greater than 0 enhanced anti-cancer activity, about 0 neutral, below 0 antagonists
row,Molecule,Difference
1,Cc1c(C)c2c(c(C)c1O)CC[C@@](C)(CCC[C@H](C)CCC[C@H](C)CCCC(C)C)O2 [α-Vitamin E],−0.42
2,Aliskiren (hemifumarate),−0.40

# Test system: NCI-H292 lung cancer cells
# Test: FDA drug screening, complete media vs cholesterol-free media with simvastatin (TABLE 2)
# Format: cell-based, human
# Details: NCI-H292 cells, FDA drug library screen, cholesterol-free media with simvastatin 0.04 μM
row,Molecule,Cholesterol-free media + simvastatin (0.04 μM)
1,O=C(O)CCCCC1CCSS1 (stereo not drawn) [α-Lipoic Acid],1.116
2,Alverine (citrate),0.4761
3,"Angiotensin II 5-valine (DRVYVHPF; Angiotensin-2; UniProt P01019 25-32, looked up, variant I5V)",2.07

# Same assay, conditions: NCI-H292 cells, FDA drug library screen, cholesterol-free media with simvastatin 0.04 μM; listed as Berbamine
row,Molecule,Cholesterol-free media + simvastatin (0.04 μM)
1,"COc1cc2c3cc1Oc1c(OC)c(OC)cc4c1[C@@H](Cc1ccc(O)c(c1)Oc1ccc(cc1)C[C@@H]3N(C)CC2)N(C)CC4 [berbamine, reference compound]",0.4924

# Same assay, conditions: NCI-H292 cells, FDA drug library screen, complete media
row,Molecule,Complete Media
1,O=C(O)CCCCC1CCSS1 (stereo not drawn) [α-Lipoic Acid],1.004
2,(−)-Limonene,1.422
3,Alverine (citrate),1.128
4,"Angiotensin II human (acetate) (DRVYIHPF; also: acetate salt; UniProt P01019 25-32, looked up)",1.355

# Same assay, conditions: NCI-H292 cells, FDA drug library screen, complete media; listed as Berbamine
row,Molecule,Complete Media
1,"COc1cc2c3cc1Oc1c(OC)c(OC)cc4c1[C@@H](Cc1ccc(O)c(c1)Oc1ccc(cc1)C[C@@H]3N(C)CC2)N(C)CC4 [berbamine, reference compound]",1.667

# Same assay, conditions: NCI-H292 cells, FDA library drug in cholesterol-free media with simvastatin 0.04 μM
row,Molecule,Cholesterol-free media + simvastatin (0.04 μM)
1,C[N+](C)(C)CCOP(=O)([O-])OC[C@H](O)CO [sn-Glycero-3-phosphocholine],0.9593
2,Cc1c(C)c2c(c(C)c1O)CC[C@@](C)(CCC[C@H](C)CCC[C@H](C)CCCC(C)C)O2 [α-Vitamin E],1.493
3,CC1=C(/C=C/C(C)=C/C=C/C(C)=C/C=C/C=C(C)/C=C/C=C(C)/C=C/C2=C(C)CCCC2(C)C)C(C)(C)CCC1 [β-Carotene],0.923
4,(S)-Flurbiprofen,1.832
5,"Argipressin (CYFQNCPRG; not fully specified (C-terminus, bridges); cysteine pairing not given here; UniProt P01185 20-28, looked up)",1.506

# Same assay, conditions: NCI-H292 cells, FDA library drug in complete media
row,Molecule,Complete Media
1,C[N+](C)(C)CCOP(=O)([O-])OC[C@H](O)CO [sn-Glycero-3-phosphocholine],0.5999
2,Cc1c(C)c2c(c(C)c1O)CC[C@@](C)(CCC[C@H](C)CCC[C@H](C)CCCC(C)C)O2 [α-Vitamin E],0.9076
3,CC1=C(/C=C/C(C)=C/C=C/C(C)=C/C=C/C=C(C)/C=C/C=C(C)/C=C/C2=C(C)CCCC2(C)C)C(C)(C)CCC1 [β-Carotene],0.6081
4,"Argipressin (CYFQNCPRG; not fully specified (C-terminus, bridges); cysteine pairing not given here; UniProt P01185 20-28, looked up)",1.167

# Same assay, conditions: NCI-H292 cells, cholesterol-free media with simvastatin 0.04 μM; FDA drug library screen (TABLE 2)
row,Molecule,Cholesterol-free media + simvastatin (0.04 μM)
1,Aprotinin,0.8532

# Same assay, conditions: NCI-H292 cells, cholesterol-free media with simvastatin 0.04 μM; […]
row,Molecule,Cholesterol-free media + simvastatin (0.04 μM)
1,(−)-Sparteine (sulfate pentahydrate),0.83

# Same assay, conditions: NCI-H292 cells, cholesterol-free media with simvastatin 0.04 μM; cell growth value in FDA drug screen
row,Molecule,Cholesterol-free media + simvastatin (0.04 μM)
1,Aliskiren (hemifumarate),0.7275

# Same assay, conditions: NCI-H292 cells, complete media; FDA drug library screen (TABLE 2)
row,Molecule,Complete Media
1,Aprotinin,0.8102

# Same assay, conditions: NCI-H292 cells, complete media; […]
row,Molecule,Complete Media
1,(−)-Sparteine (sulfate pentahydrate),0.9345

# Same assay, conditions: NCI-H292 cells, complete media; cell growth value in FDA drug screen
row,Molecule,Complete Media
1,Aliskiren (hemifumarate),0.8337

# Same assay, conditions: NCI-H292 cells, drug in cholesterol-free media with simvastatin 0.04 μM
row,Molecule,Cholesterol-free media + simvastatin (0.04 μM)
1,Asenapine (maleate),1.309

# Same assay, conditions: NCI-H292 cells, drug in complete media
row,Molecule,Complete Media
1,"Angiotensin III (TFA) (RVYIHPF; also: TFA salt; UniProt P01019 26-32, looked up)",0.8125
2,Asenapine (maleate),1.135

# Same assay, conditions: complete media minus cholesterol-free media + simvastatin (0.04 μM); […]
row,Molecule,Difference
1,"Angiotensin II 5-valine (DRVYVHPF; Angiotensin-2; UniProt P01019 25-32, looked up, variant I5V)",−0.98
2,Aprotinin,−0.04

# Same assay, conditions: complete media minus cholesterol-free media + simvastatin; >0 enhanced anti-cancer activity, about 0 neutral, <0 antagonist
row,Molecule,Difference
1,(−)-Limonene,0.38
2,Aliskiren (hemifumarate),0.11
3,Alverine (citrate),0.65

# Same assay, conditions: complete media minus cholesterol-free media + simvastatin; […]
row,Molecule,Difference
1,(−)-Sparteine (sulfate pentahydrate),0.10
2,"Angiotensin II human (acetate) (DRVYIHPF; also: acetate salt; UniProt P01019 25-32, looked up)",0.21

# Same assay, conditions: complete media minus cholesterol-free media + simvastatin; […]; listed as Berbamine
row,Molecule,Difference
1,"COc1cc2c3cc1Oc1c(OC)c(OC)cc4c1[C@@H](Cc1ccc(O)c(c1)Oc1ccc(cc1)C[C@@H]3N(C)CC2)N(C)CC4 [berbamine, reference compound]",1.17

# Same assay, conditions: complete media vs cholesterol-free media + simvastatin (0.04 μM); >0 enhanced anti-cancer activity, about 0 neutral, <0 antagonist
row,Molecule,Difference
1,C[N+](C)(C)CCOP(=O)([O-])OC[C@H](O)CO [sn-Glycero-3-phosphocholine],−0.36
2,O=C(O)CCCCC1CCSS1 (stereo not drawn) [α-Lipoic Acid],−0.11
3,Cc1c(C)c2c(c(C)c1O)CC[C@@](C)(CCC[C@H](C)CCC[C@H](C)CCCC(C)C)O2 [α-Vitamin E],−0.59
4,CC1=C(/C=C/C(C)=C/C=C/C(C)=C/C=C/C=C(C)/C=C/C=C(C)/C=C/C2=C(C)CCCC2(C)C)C(C)(C)CCC1 [β-Carotene],−0.31
5,(S)-Flurbiprofen,−0.79
6,Asenapine (maleate),−0.17

# Same assay, conditions: complete media vs cholesterol-free media + simvastatin (0.04 μM); […]
row,Molecule,Difference
1,"Angiotensin III (TFA) (RVYIHPF; also: TFA salt; UniProt P01019 26-32, looked up)",−0.20
2,"Argipressin (CYFQNCPRG; not fully specified (C-terminus, bridges); cysteine pairing not given here; UniProt P01185 20-28, looked up)",−0.34
